One test deals with GRXC2 (Arabidopsis thaliana, UniProt Q9FNE2). Briefly: GSH-disulfide transhydrogenase assay coupled to glutathione reductase, NADPH at […] nm. The following applies: 0.7 mM HED, 1 mM GSH, 0.2 mM NADPH, pH 8.0, 30°C. It is filed as biochemical.
The next test addresses GRXC1 (Arabidopsis thaliana, UniProt Q8L8T2). Described as above. The settings on record: 0.7 mM HED, 1 mM GSH, 0.2 mM NADPH, pH 8.0, 30°C. It is filed as biochemical.

Chain of GRXC2 (Q9FNE2 whole entry): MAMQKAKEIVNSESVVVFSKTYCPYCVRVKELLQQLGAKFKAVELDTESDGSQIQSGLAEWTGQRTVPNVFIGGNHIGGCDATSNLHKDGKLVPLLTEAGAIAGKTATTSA
Chain of GRXC1 (Q8L8T2 whole entry): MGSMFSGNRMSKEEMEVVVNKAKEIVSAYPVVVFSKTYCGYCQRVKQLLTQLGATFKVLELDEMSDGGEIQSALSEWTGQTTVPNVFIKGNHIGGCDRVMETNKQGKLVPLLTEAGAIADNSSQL

As for `OCCSSCCO` [HED], the “GSH-disulfide transhydrogenase assay coupled to glutathione reductase, NADPH at” value at GRXC2 and at GRXC1 was “specific activities of recombinant GRXs were measured using the artificial substrate HED” throughout.

(Values after article PMC5177656, “Cytosolic Triosephosphate Isomerase from Arabidopsis thaliana Is Reversibly Modified by Glutathione on Cysteines 127 and 218” (Frontiers in Plant Science, 2016).)
